From ChEMBL document CHEMBL1201862, “PubChem BioAssay data set” (2004)
The source made the active and inactive calls.

How the values were obtained:
[1] = molecular target: T1, Apoptotic protease-activating factor 1 (Homo sapiens, UniProt O14727); format: functional
T1 sequence (O14727 whole entry): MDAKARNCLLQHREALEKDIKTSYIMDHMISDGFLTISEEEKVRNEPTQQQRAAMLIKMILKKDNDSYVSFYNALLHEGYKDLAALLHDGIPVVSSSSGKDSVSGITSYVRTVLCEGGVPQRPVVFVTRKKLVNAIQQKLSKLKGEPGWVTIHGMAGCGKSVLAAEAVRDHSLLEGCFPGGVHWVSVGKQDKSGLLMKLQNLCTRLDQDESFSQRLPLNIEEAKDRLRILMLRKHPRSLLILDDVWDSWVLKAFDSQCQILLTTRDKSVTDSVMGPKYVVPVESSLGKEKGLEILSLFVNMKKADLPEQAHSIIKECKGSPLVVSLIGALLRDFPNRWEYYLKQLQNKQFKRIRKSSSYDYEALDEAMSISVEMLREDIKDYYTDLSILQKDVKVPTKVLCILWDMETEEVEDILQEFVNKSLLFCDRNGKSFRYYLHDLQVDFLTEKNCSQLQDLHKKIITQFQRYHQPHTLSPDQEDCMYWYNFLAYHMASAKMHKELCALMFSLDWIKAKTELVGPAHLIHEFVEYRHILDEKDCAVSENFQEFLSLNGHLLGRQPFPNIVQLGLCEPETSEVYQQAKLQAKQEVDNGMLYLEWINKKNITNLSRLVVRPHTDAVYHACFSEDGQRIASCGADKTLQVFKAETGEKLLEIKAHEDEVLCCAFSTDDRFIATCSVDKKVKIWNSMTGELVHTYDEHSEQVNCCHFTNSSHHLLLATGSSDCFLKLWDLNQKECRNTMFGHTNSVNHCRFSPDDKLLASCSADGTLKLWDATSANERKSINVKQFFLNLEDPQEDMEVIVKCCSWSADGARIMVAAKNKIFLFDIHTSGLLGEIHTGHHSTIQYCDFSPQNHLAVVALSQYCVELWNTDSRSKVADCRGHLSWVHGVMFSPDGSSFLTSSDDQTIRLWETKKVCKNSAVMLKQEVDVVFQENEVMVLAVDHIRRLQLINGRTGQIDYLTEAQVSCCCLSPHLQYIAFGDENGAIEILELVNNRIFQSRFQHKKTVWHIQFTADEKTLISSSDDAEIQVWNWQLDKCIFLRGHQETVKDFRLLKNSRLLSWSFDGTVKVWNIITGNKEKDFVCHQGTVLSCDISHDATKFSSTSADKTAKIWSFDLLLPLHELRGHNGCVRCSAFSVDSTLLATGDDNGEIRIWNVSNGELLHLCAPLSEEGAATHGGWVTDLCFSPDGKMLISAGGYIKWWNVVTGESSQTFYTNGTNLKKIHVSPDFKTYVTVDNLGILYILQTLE

[2] = test system: INS1; experiment: beta cell apoptosis inhibitors, cytokine rescue, dose response, luminescence, retest (AID 449756); format: functional, cell-based; settings: Rattus norvegicus;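 note: cell death triggered by IL-1 beta plus TNF-alpha plus IFN-gamma mixture; protective hits raise ATP signal compared with cytokine alone wells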
[3] = molecular target: Induced myeloid leukemia cell differentiation protein Mcl-1 (Homo sapiens, UniProt Q07820); format: functional
[4] = inhibitors of firefly luciferase expression or activity, dose response, H4 neuroglioma cells, luminescence (AID 1990); format: functional, cell-based
[5] = Luminescence Cell-Based Dose Response HTS to Identify Inhibitors of 5'UTR Stem-Loop Driven Prion Protein mRNA Translation in H4 Neuroglioblastoma Cells. [Related pubchem assays: 1827 (Project Summary), 1813 (Primary HTS)]; format: functional
[6] = inhibitors of SNCA 5'UTR-driven reporter translation, confirmation, H4 neuroglioma cells, luminescence (AID 1988); format: functional, cell-based
[7] = inhibitors of intracellular T. cruzi replication, confirmation, NIH3T3 host cells, beta-gal luminescence (AID 2044); format: functional, cell-based;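 note: intracellular parasites grown in NIH/3T3 mouse fibroblasts as host cells; luminescent beta-galactosidase reporter signal from transgenic T. cruzi replicating inside host cells; inhibitors lower the luminescence signal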
[8] = cytotoxicity toward NIH3T3 fibroblasts, dose response, counter-screen, cell-based, ATP luminescence, mouse fibroblasts (AID 2010); format: functional;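 note: cells exposed to compound for about 90 hours before reading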
[9] = molecular target: Nonstructural protein 1 (Influenza A virus, UniProt Q194T2); format: functional, Influenza A virus (A/California/07/2009(H1N1))
[10] = molecular target: T2, DNA repair protein RAD52 homolog (Homo sapiens, UniProt P43351); format: functional, biochemical
T2 sequence (P43351 whole entry): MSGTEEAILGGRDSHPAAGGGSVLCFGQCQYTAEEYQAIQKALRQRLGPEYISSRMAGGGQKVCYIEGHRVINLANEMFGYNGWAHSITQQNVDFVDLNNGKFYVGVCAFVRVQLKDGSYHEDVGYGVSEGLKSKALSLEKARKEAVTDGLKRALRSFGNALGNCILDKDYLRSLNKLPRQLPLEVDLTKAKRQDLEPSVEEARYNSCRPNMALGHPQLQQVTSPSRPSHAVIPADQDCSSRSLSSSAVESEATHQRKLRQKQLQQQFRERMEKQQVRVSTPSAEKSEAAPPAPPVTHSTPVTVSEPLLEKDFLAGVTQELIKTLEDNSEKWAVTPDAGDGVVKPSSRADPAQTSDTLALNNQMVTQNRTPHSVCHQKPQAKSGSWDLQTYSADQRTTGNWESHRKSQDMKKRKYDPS

[11] = HEp-2 cell cytotoxicity, dose response, cytotoxicity control for RSV inhibitor project, HTS (AID 2410); format: functional; settings: human respiratory syncytial virus
[12] = A cytotoxicity screen of small molecule inhibitors of the PhoP region in Salmonella typhi identified in the primary screen. [Related pubchem assays: 1850, 1864, 1985 ]; format: functional
[13] = cells
[14] = molecular target: Troponin, cardiac muscle (Homo sapiens, UniProt P19429+P45379+P63316); experiment: Fluorescence-based biochemical high throughput dose response assay for activators of the calcium sensitivity of cardiac Regulated Thin Filaments (RTF). [Related pubchem assays (depositor defined):AID493008, AID493018, AID504382, AID504383]; format: protein-complex assay
[15] = microbe, parasite or virus in culture; format: functional; settings: Mycobacterium tuberculosis
[16] = growth suppression of PTEN-null colon cells, dose response, cell-based, HCT116 PTEN knockout (AID 1047); format: functional;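 note: HCT116 colon tumor cells with PTEN knocked out; cells exposed to compound for 60 hours before readout; potency for loss of cell viability measured by luminescence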
[17] = growth suppression of beta-catenin-knockout colon cells, dose response, cell-based, HCT116, human colon tumor (AID 1045); format: functional;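 note: HCT116 colon tumor cells with beta catenin knocked out; cells exposed to compound for 60 hours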
[18] = THP-1 cell cytotoxicity, dose response, cytotoxicity control for non-replicating M. tuberculosis project (AID 489025); format: functional
[19] = Luminescence Cell-Based Dose Retest to Confirm Inhibitors of Cancer Stem Cells. [Related pubchem assays (depositor defined):AID2717, AID2721]; format: functional; settings: Homo sapiens
[20] = HepG2 cell cytotoxicity, dose response, cytotoxicity control for non-replicating M. tuberculosis project (AID 489018); format: functional; settings: Mycobacterium tuberculosis
[21] = Vero E6 cell cytotoxicity, dose response, cytotoxicity control for non-replicating M. tuberculosis project, secondary assay (AID 492998); format: functional, VeroE6; settings: Vero C1008
[22] = cells; format: functional
[23] = molecular target: Genome polyprotein (dengue virus type 2, UniProt P29990); experiment: Dengue-2 NS5 methyltransferase inhibitors, primary screen, biochemical, confirmation dose response (AID 588689); format: functional
[24] = molecular target: Cytochrome P450 3A4 (Homo sapiens, UniProt P08684); settings: Potency;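 note: confirmatory qHTS run detecting inhibitors and substrates of CYP3A4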
[25] = molecular target: Large T antigen (Simian virus 40, UniProt P03070); format: functional, Betapolyomavirus macacae;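 note: Confirmatory-stage PubChem screen for compounds that inhibit SV40 T antigen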
[26] = molecular target: SUMO-activating enzyme (Homo sapiens, UniProt Q9UBT2); experiment: SUMOylation inhibitor hit validation, confirmation, SUMOylation inhibitor project, biochemical, AlphaScreen (AID 2018); format: functional
[27] = molecular target: T3, Calpain-2 catalytic subunit (Sus scrofa, UniProt P43367); experiment: pig calpain II inhibitor potency, dose response, biochemical, fluorogenic peptide substrate (AID 1420); format: functional
T3 sequence (P43367 whole entry): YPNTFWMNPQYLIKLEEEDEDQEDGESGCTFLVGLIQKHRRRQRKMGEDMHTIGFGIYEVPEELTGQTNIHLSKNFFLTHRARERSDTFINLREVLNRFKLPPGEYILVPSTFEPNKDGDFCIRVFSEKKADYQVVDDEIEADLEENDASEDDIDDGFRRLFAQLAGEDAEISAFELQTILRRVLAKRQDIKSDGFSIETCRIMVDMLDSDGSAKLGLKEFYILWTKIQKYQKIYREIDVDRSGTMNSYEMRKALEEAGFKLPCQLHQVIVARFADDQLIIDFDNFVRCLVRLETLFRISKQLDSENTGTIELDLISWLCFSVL

[28] = P. falciparum Dd2 growth inhibitors, dose response, SYBR Green, cherry-picked samples (AID 1159567); format: functional, cell-based
[29] = HepG2 cell cytotoxicity, dose response, cytotoxicity control, cherry-picked samples (AID 1159577); format: functional, cell-based

Chain of Genome polyprotein (P29990 2492-3391 limits assumed): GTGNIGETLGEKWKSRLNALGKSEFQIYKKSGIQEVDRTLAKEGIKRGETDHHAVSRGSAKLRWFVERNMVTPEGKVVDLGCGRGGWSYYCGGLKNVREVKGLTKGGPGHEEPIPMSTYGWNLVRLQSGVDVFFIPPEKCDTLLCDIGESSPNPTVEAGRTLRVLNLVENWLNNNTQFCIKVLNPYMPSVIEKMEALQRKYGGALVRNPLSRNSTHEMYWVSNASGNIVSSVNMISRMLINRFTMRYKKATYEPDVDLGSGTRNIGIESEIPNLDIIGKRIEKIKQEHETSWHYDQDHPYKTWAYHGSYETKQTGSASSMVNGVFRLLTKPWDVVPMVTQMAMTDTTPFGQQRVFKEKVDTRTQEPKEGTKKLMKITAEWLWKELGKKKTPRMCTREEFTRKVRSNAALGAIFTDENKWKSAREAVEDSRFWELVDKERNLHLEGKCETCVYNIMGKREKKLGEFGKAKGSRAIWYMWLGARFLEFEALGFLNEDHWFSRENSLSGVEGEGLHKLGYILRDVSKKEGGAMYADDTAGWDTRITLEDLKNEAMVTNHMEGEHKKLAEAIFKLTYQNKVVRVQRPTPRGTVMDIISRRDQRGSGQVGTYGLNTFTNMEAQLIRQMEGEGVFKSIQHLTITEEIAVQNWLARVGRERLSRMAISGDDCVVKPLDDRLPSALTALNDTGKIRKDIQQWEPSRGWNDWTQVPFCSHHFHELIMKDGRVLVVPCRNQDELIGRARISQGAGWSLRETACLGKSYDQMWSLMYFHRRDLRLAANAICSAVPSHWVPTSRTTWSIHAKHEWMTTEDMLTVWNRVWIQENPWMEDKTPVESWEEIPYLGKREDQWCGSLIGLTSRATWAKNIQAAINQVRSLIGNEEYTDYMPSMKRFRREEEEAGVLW
Chain of Cytochrome P450 3A4 (P08684 whole entry): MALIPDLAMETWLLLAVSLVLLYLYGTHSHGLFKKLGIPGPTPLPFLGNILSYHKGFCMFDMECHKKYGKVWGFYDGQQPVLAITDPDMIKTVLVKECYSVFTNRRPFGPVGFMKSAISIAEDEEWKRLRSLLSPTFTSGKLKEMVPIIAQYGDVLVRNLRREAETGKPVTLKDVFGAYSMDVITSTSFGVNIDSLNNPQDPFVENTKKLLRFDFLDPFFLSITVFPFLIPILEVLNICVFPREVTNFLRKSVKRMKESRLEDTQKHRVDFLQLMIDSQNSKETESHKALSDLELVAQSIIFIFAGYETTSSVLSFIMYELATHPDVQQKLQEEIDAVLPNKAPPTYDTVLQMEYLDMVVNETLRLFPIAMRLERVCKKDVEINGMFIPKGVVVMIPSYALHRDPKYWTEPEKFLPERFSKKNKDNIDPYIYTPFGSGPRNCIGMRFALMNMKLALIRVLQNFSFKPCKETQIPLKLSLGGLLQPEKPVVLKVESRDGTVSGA
Chain of Nonstructural protein 1 (Q194T2 whole entry): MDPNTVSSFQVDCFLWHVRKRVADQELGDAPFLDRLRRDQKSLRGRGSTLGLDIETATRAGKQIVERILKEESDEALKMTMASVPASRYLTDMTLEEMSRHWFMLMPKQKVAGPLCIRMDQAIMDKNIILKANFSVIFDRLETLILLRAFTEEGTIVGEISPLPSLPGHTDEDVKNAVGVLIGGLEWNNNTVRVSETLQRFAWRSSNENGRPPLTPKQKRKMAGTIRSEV
Chain of Induced myeloid leukemia cell differentiation protein Mcl-1 (Q07820 whole entry): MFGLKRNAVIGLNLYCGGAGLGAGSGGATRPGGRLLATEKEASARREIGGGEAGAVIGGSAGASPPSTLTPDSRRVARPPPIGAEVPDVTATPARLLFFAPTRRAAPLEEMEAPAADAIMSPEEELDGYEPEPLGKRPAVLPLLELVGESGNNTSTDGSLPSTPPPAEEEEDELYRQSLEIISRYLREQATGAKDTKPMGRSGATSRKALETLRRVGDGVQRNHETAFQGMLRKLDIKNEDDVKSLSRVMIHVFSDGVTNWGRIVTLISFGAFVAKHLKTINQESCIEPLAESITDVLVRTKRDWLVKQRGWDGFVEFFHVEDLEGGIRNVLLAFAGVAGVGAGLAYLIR
Chain of SUMO-activating enzyme (Q9UBE0 whole entry): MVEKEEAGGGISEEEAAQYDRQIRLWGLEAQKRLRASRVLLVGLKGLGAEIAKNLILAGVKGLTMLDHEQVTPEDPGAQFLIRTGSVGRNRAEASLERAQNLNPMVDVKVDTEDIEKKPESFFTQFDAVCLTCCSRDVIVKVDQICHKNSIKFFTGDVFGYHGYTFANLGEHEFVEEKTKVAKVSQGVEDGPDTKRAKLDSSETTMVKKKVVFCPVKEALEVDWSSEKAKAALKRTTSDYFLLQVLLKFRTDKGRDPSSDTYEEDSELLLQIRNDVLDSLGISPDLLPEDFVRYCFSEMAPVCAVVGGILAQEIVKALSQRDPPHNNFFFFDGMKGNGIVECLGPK
Chain of SUMO-activating enzyme (Q9UBT2 whole entry): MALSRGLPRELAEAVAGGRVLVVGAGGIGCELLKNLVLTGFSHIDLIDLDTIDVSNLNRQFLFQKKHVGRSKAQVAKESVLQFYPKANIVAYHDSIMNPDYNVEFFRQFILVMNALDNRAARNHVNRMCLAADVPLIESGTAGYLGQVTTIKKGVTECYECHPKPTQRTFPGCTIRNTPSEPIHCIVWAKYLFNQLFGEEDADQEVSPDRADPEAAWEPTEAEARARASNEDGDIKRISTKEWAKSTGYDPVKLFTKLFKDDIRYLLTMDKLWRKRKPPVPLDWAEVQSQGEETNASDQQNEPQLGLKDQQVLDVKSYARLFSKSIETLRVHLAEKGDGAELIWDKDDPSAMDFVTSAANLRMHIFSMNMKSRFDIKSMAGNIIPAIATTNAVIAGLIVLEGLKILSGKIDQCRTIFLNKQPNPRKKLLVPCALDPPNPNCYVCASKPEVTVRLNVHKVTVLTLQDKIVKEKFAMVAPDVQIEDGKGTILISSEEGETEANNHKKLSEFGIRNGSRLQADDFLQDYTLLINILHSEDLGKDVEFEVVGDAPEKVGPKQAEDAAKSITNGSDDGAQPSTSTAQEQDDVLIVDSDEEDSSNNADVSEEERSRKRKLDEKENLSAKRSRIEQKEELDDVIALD
Chain of Large T antigen (P03070 whole entry): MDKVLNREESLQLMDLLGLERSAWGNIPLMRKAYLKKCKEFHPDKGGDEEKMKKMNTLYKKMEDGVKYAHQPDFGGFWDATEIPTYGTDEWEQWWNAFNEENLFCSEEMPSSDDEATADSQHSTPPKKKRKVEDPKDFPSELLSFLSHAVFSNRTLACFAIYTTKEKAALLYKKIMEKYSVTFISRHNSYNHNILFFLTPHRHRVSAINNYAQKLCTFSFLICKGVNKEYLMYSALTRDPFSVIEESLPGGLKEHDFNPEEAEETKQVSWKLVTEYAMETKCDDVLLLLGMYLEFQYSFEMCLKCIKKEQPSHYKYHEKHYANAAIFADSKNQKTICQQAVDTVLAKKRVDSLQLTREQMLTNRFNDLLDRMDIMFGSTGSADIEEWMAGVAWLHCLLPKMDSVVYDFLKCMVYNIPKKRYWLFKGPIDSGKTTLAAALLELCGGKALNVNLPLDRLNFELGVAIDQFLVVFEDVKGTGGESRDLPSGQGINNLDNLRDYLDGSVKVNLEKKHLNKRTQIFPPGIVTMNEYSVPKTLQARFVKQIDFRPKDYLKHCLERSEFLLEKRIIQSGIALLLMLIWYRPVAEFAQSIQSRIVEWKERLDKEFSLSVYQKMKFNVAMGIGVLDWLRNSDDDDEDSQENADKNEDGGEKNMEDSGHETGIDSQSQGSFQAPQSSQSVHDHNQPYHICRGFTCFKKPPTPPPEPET

CCCOc1cc(NCc2ccccc2)c2ncn(C(C)C)c2c1
IC50 [1]: 5.67 µM (active)
AC50 [2]: 8.46 µM (active)

Cc1sc(NC(=O)c2sc3nc4c(C)cccc4cc3c2N)c(C#N)c1C
IC50 [3]: 1.44 µM (active)

COCc1cc(CN2CCCC2)c(O)c2ncccc12
EC50 [4]: 11.4 µM (active)
EC50 [5]: 6.21 µM (active)
EC50 [6]: 8.4 µM (active)
EC50 [7]: 3.07 µM (active)
EC50 [8]: 4.17 µM (active)
IC50 [9]: 2.31 µM (active)

COc1cccc(OCC(O)CN2CCC(CN3C(=O)c4cccc5cccc(c45)C3=O)CC2)c1 (stereo unspecified)
EC50 [7]: 2.83 µM (active)
EC50 [8]: 9.64 µM (active)
AC50 [10]: 10.6 µM (active)

COC(=O)C1=C(C)N(Cc2ccco2)C(=O)N[C@H]1c1ccc(Br)cc1
CC50 [11]: 42.9 µM (active)
EC50 [12]: > 50 µM (active)
IC50 [13]: 3.12 µM (active)

O=C(Nc1ccc(Cl)c(Cl)c1)Nc1ccc([N+](=O)[O-])cn1
EC50 [14]: > 71.5 µM (inactive)

OC(CN1CCCC1)Cn1ccc2ccccc21 (stereo unspecified)
AC50 [10]: 16.1 µM (active)

c1cc2c3c(cccc3c1)NC1(CCC3(CC1)Nc1cccc4cccc(c14)N3)N2
CC50 [15]: 20 µM (active)
IC50 [1]: 7.06 µM (active)

COc1cc(CNC(C)(C)CO)cc(Br)c1OCc1ccc(Cl)cc1Cl
EC50 [16]: 7.38 µM (active)
EC50 [17]: 7.94 µM (active)
CC50 [18]: 19.4 µM (active)
AC50 [19]: 5.33 µM (active)
CC50 [20]: 12.5 µM (active)
CC50 [21]: 13.8 µM (active)
IC50 [22]: 16.7 µM (active)
AC50 [10]: 18.5 µM (active)

COc1cc(C(C2C(=O)CC(C)(C)CC2=O)C2C(=O)CC(C)(C)CC2=O)ccc1O
IC50 [23]: 62.3 µM (active)

N#CC(Cl)Cl
AC50 [24]: 31.6 µM (inconclusive)

CC(C)CCC(C)N/C=C1/C(=O)N(Cc2ccccc2)C(=O)c2ccccc21 (stereo unspecified)
IC50 [1]: 7.34 µM (active)

CCOc1ccc(NCc2cccn2-c2nnc(N3CCC(C(=O)NCCCN4CCCCC4C)CC3)s2)cc1 (stereo unspecified)
IC50 [25]: 19.5 µM (active)
AC50 [10]: 19.6 µM (active)

COC(=O)CNC(=O)C1(C)C=CC2(CCCCC2)N1C(=O)OC (stereo unspecified)
AC50 [24]: 31.6 µM (inconclusive)

CN1C[C@@H](CO)C=C2c3cccc4[nH]cc(c34)CC21 (stereo partly specified)
AC50 [24]: 31.6 µM (inconclusive)

O=[N+]([O-])c1cccc(NNS(=O)(=O)c2ccccc2F)c1
EC50 [12]: > 50 µM (active)

COc1cc(CNCCCN2CCOCC2)c(Br)cc1OCC(=O)Nc1ccccc1C
EC50 [12]: > 50 µM (active)

CC1CCN(C2=C(NS(=O)(=O)c3ccccc3)C(=O)c3ccccc3C2=O)CC1
IC50 [9]: 11.3 µM (active)

CCOC(=O)N1CCC(=NNc2ccnc3cc(Cl)ccc23)CC1
EC50 [12]: > 50 µM (active)

CCCCCCC1=Cc2cc(OC)c(OC)cc2C(CC(=O)/C=C/OC)O1 (stereo unspecified)
AC50 [24]: 5.01 µM (inconclusive)

Cc1cc(NC(=O)CSc2nc3cc(C(=O)NCCCOC(C)C)ccc3c(=O)n2Cc2ccco2)no1
IC50 [26]: 38.3 µM (active)
IC50 [27]: 16.1 µM (not active)

Oc1ccc(N=Nc2cccc(Cl)c2)cc1/C=N/c1ccc(N2CCOCC2)cc1
IC50 [3]: 5.14 µM (not active)

N#C/C(=C\c1ccccc1)C(=O)NNS(=O)(=O)c1cccc([N+](=O)[O-])c1
IC50 [23]: 51.8 µM (active)

C=CCOc1ccc(C(c2c(O)nc(SC)nc2O)c2c(O)nc(SC)nc2O)cc1
IC50 [23]: 33.3 µM (active)

Clc1cccc(/C=N\Nc2nccs2)c1
EC50 [12]: > 50 µM (active)
IC50 [22]: 12.7 µM (active)

C[C@@H]1CN([C@@H](C)CO)C(=O)Cc2cc(NC(=O)Nc3ccccc3)ccc2O[C@H]1CN(C)Cc1ccc(-c2ccccc2)cc1
AC50 [28]: 1.87 µM (active)
AC50 [29]: 18.5 µM (active)

C[C@H]1CN([C@@H](C)CO)S(=O)(=O)c2ccc(C#Cc3ccc(F)cc3)cc2O[C@@H]1CN(C)C(=O)NC1CCCC1
AC50 [28]: 6.21 µM (active)
AC50 [29]: 25.6 µM (active)

COc1ccc(-c2oc3ccccc3c(=O)c2O)cc1
AC50 [24]: 3.98 µM (inconclusive)
